Read-outs that look alike come from different tables or passages of the source.
Assays:
[1] = target: human Farnesoid X receptor ligand-binding domain/Gal4 DNA binding domain chimera (Homo sapiens (Human), UniProt Q96RI1); experiment: Cell-based FXR beta-lactamase reporter assay (FXR-UAS-bla HEK 293T cells); conditions: for FXR pEC50 / % Efficacy / EC50: cellular FXR beta-lactamase reporter assay; for FXR pEC50 / EC50: -log EC50; for % Efficacy: extent of activation relative to GW4064; for Emax: HEK-293T, read-out: % Efficacy; for EC50: read-out: FXR pEC50 (converted)
Sequence of human Farnesoid X receptor ligand-binding domain/Gal4 DNA binding domain chimera (Q96RI1 262-486, stated change not applied): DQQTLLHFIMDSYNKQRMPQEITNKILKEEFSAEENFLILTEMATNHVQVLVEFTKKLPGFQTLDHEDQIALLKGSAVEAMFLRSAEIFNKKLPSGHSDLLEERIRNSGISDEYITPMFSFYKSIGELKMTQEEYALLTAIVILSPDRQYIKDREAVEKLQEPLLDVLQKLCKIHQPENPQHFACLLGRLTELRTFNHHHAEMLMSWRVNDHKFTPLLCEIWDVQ
Method: FXR activation was measured using a cell line and procedure obtained from Life Technologies (Cat #K1691). FXR-UAS-bla HEK 293T cells contain a human Farnesoid X receptor ligand-binding domain/Gal4 DNA binding domain chimera stably integrated into the CellSensor® UAS-bla HEK 293T cell line. The CellSensor® UAS-bla HEK 293T contains a beta-lactamase reporter gene under control of a UAS response element stably integrated into HEK 293T cells. Activation of FXR by bound ligands results in transcriptional activation of the beta-lactamase reporter gene, which is detected via assay of beta-lactamase activity. Cells are harvested and diluted into assay medium containing phenol red-free DMEM supplemented with 2% Charcoal-stripped FBS, pyruvate, non-essential amino acids. Cells are then transferred to a 384 well assay plate. Test compounds are dissolved in DMSO and a 3-fold serial dilution series is generated, then further diluted into assay medium. […] A FRET-based […] is loaded into cells as its acetomethoxy ester. Intracellular esterases liberate free CCF4, a cephalosporin core linking 7-hydroxycoumarin to fluorescein. In the presence of beta-lactamase activity produced in the presence of FXR agonists, cleavage of CCF4 spatially separates the two dyes and disrupts FRET, so that exciting the coumarin at 409 nm now produces a blue fluorescence signal at 447 nm. The change in FRET signal is plotted against the test compound concentration and fit to a 3-parameter logistical equation.

[2] = target: ligand binding domain of human FXR (Homo sapiens (Human), UniProt Q96RI1); experiment: FXR ligand binding assay (LanthaScreen FRET); conditions: for FXR pEC50 / EC50: -log EC50; for Emax: read-out: % Efficacy; for EC50: read-out: FXR pEC50 (converted);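 as to all read-outs here: TR-FRET coactivator recruitment: ligand-induced binding of fluorescein-labelled SRC2-2 peptide to GST-tagged FXR LBD detected via Tb anti-GST antibody, serial compound dilutions, 3-parameter logistic fit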
Sequence of ligand binding domain of human FXR (Q96RI1 262-486): as the sequence (Q96RI1 262-486, stated change not applied) above
Method: The affinity of FXR ligands for the ligand binding domain of FXR was determined using a commercially available human FXR ligand binding assay (LanthaScreen, Thermofisher Cat #PV4833). […] Binding of FXR ligands to the FXR ligand binding domain promotes binding of the fluorescein-labelled SRC2-2 peptide. This causes a FRET signal between the terbium-labelled anti-GST antibody and the fluorescein-labelled SRC peptide which are both bound to the FXR ligand binding domain.
Test compounds are dissolved in DMSO and a 3-fold serial dilution series is generated, then further diluted into assay buffer. The compounds are mixed with 5 nM GST-tagged FXR ligand binding domain, 5 nM Tb-labelled anti-GST antibody and 500 nM fluorcscein-labelled SRC2-2 peptide in a pH 7.4 buffer. The reaction is incubated at room temperature for 1 hour, then the FRET signal is measured as the ratio of the 520 nm/495 nm emission following excitation at 340 nm. The change in FRET signal is plotted against the test article concentration and fit to a 3-parameter logistical equation.

[3] = FXR ligand binding assay, extent of activation relative to GW4064

| Structure (SMILES) | FXR pEC50 [1] | % Efficacy [1] [%] | FXR pEC50 ([2]; FXR ligand binding assay) | Emax [1] [%] | EC50 [1] [nM] | Emax [2] [%] | % Efficacy [2, 3] [%] | % Efficacy [2] [%] | EC50 ([2]; FXR ligand binding assay) [nM] |
| --- | --- | --- | --- | --- | --- | --- | --- | --- | --- |
| O=C(O)c1cc(F)c2nc(N3[C@@H]4CC[C@H]3C[C@@H](OC(=O)c3c(C56CCC(CC5)CC6)noc3C3CC3)C4)sc2c1 [Compound I-20, 2-[(1R,3R,5S)-3-(3-{Bicyclo[2.2.2]octan-1-yl}-5-cyclopropyl-1,2-oxazole-4-carbonyloxy)-8-azabicyclo[3.2.1]octan-8-yl]-4-fluoro-1,3-benzothiazole-6-carboxylic Acid] | 6.6 | 22 | >4.5 |  |  |  |  |  |  |
| O=C(O)c1cc(C(F)(F)F)c2nc(N3[C@@H]4CC[C@H]3C[C@@H](OC(=O)c3c(-c5c(Cl)cccc5Cl)noc3C3CC3)C4)sc2c1 [Compound I-10, 2-[(1R,3R,5S)-3-[5-cyclopropyl-3-(2,6-dichlorophenyl)-1,2-oxazole-4-carbonyloxy]-8-azabicyclo[3.2.1]octan-8-yl]-4-(trifluoromethyl)-1,3-benzothiazole-6-carboxylic Acid] |  |  |  | 104 | 25.1 | 102 |  |  |  |
| O=C(O)c1cc(F)c2nc(N3[C@@H]4CC[C@H]3C[C@@H](OC(=O)c3c(-c5ccccc5)noc3C3CC3)C4)sc2c1 [Compound I-13, 2-[(1R,3R,5S)-3-(5-Cyclopropyl-3-phenyl-1,2-oxazole-4-carbonyloxy)-8-azabicyclo[3.2.1]octan-8-yl]-4-fluoro-1,3-benzothiazole-6-carboxylic Acid] | 6 | 93 | 6.7 |  |  |  | 40 |  |  |
| Cn1c(N2[C@@H]3CC[C@H]2C[C@@H](OC(=O)c2c(-c4c(Cl)cccc4Cl)noc2C2CC2)C3)nc2c(F)cc(C(=O)O)cc21 [Compound I-31, 2-[(1R,3R,5S)-3-[5-cyclopropyl-3-(2,6-dichlorophenyl)-1,2-oxazole-4-carbonyloxy]-8-azabicyclo[3.2.1]octan-8-yl]-4-fluoro-1-methyl-1H-1,3-benzodiazole-6-carboxylic Acid] | 6.4 | 100 | 6.6 |  |  |  |  | 63 |  |
| O=C(O[C@H]1C[C@H]2CC[C@@H](C1)N2c1ccc2c(C(=O)O)noc2c1)c1c(-c2c(Cl)cccc2Cl)noc1C1CC1 [Compound I-29, 6-[(1R,3R,5S)-3-[5-cyclopropyl-3-(2,6-dichlorophenyl)-1,2-oxazole-4-carbonyloxy]-8-azabicyclo[3.2.1]octan-8-yl]-1,2-benzoxazole-3-carboxylic Acid] |  |  |  | 124 | 251 | 98 |  |  | 316 |
| O=C(OCC(=O)N(CCO)CCO)c1cc(F)c2nc(N3[C@@H]4CC[C@H]3C[C@@H](OC(=O)c3c(-c5c(Cl)cccc5Cl)noc3C3CC3)C4)sc2c1 [Compound I-64, [bis(2-hydroxyethyl)carbamoyl]methyl 2-[(1R,3R,5S)-3-[5-cyclopropyl-3-(2,6-dichlorophenyl)-1,2-oxazole-4-carbonyloxy]-8-azabicyclo[3.2.1]octan-8-yl]-4-fluoro-1,3-benzothiazole-6-carboxylate] |  |  | 6.6 |  | < 31.6 | 32 |  |  |  |
| O=C(O)c1cc(F)cc(N2[C@@H]3CC[C@H]2C[C@@H](OC(=O)c2c(-c4c(Cl)cccc4Cl)noc2C2CC2)C3)c1 [Compound I-42, 3-[(1R,3R,5S)-3-[5-cyclopropyl-3-(2,6-dichlorophenyl)-1,2-oxazole-4-carbonyloxy]-8-azabicyclo[3.2.1]octan-8-yl]-5-fluorobenzoic acid] |  |  | 8 | 85 | 79.4 | 38 |  |  |  |
| O=C(NCCS(=O)(=O)O)c1cc(F)c2nc(N3[C@@H]4CC[C@H]3C[C@@H](OC(=O)c3c(-c5c(Cl)cccc5Cl)noc3C3CC3)C4)sc2c1 [Compound I-5, 2-({2-[(1R,3R,5S)-3-[5-cyclopropyl-3-(2,6-dichlorophenyl)-1,2-oxazole-4-carbonyloxy]-8-azabicyclo[3.2.1]octan-8-yl]-4-fluoro-1,3-benzothiazol-6-yl}formamido)ethane-1-sulfonic Acid] |  |  |  | 72 | 2510 | 77 |  |  |  |
| O=C(O)c1cc(C2CC2)c2nc(N3[C@@H]4CC[C@H]3C[C@@H](OC(=O)c3c(-c5c(Cl)cccc5Cl)noc3C3CC3)C4)sc2c1 [Compound I-12, 2-[(1R,3R,5S)-3-[5-cyclopropyl-3-(2,6-dichlorophenyl)-1,2-oxazole-4-carbonyloxy]-8-azabicyclo[3.2.1]octan-8-yl]-4-(cyclopropyl)-1,3-benzothiazole-6-carboxylic Acid] |  |  |  | 112 | 7.94 | 125 |  |  |  |
| O=C(NS(=O)(=O)C1CC1)c1ccc(N2[C@@H]3CC[C@H]2C[C@H](OC(=O)c2c(-c4c(Cl)cccc4Cl)noc2C2CC2)C3)cc1 [Compound I-48, (1R,3S,5S)-8-{4-[(cyclopropanesulfonyl)carbamoyl]phenyl}-8-azabicyclo[3.2.1]octan-3-yl 5-cyclopropyl-3-(2,6-dichlorophenyl)-1,2-oxazole-4-carboxylate] | 8.6 | 130 | 8.2 |  |  |  | 124 |  |  |
| COc1cc2nc(N3[C@@H]4CC[C@H]3C[C@@H](OC(=O)c3c(-c5c(F)cccc5F)noc3C3CC3)C4)sc2cc1C(=O)O [Compound I-18, 2-[(1R,3R,5S)-3-[5-cyclopropyl-3-(2,6-difluorophenyl)-1,2-oxazole-4-carbonyloxy]-8-azabicyclo[3.2.1]octan-8-yl]-5-methoxy-1,3-benzothiazole-6-carboxylic Acid] |  |  |  | 99 | 251 | 66 |  |  |  |
| O=C(O)CNC(=O)c1cc(F)c2nc(N3[C@@H]4CC[C@H]3C[C@@H](OC(=O)c3c(-c5c(Cl)cccc5Cl)noc3C3CC3)C4)sc2c1 [Compound I-4, 2-({2-[(1R,3R,5S)-3-[5-cyclopropyl-3-(2,6-dichlorophenyl)-1,2-oxazole-4-carbonyloxy]-8-azabicyclo[3.2.1]octan-8-yl]-4-fluoro-1,3-benzothiazol-6-yl}formamido)acetic Acid] |  |  |  | 109 | 794 | 76 |  |  |  |
| COc1cc2nc(N3[C@@H]4CC[C@H]3C[C@@H](OC(=O)c3c(-c5c(Cl)cccc5Cl)noc3C3CC3)C4)sc2cc1C(=O)O [Compound I-7, 2-[(1R,3R,5S)-3-[5-cyclopropyl-3-(2,6-dichlorophenyl)-1,2-oxazole-4-carbonyloxy]-8-azabicyclo[3.2.1]octan-8-yl]-5-methoxy-1,3-benzothiazole-6-carboxylic Acid] |  |  |  | 110 | 7.94 | 125 |  |  |  |
| O=C(O)c1ccc(N2[C@@H]3CC[C@H]2C[C@@H](OC(=O)c2c(-c4c(Cl)cccc4OC(F)F)noc2C2CC2)C3)c(F)c1 [Compound I-43, 4-[(1R,3R,5S)-3-{3-[2-chloro-6-(difluoromethoxy)phenyl]-5-cyclopropyl-1,2-oxazole-4-carbonyloxy}-8-azabicyclo[3.2.1]octan-8-yl]-3-fluorobenzoic Acid] |  |  |  | 108 | 39.8 | 72 |  |  | 50.1 |
| CS(=O)(=O)NC(=O)c1ccc(N2[C@@H]3CC[C@H]2C[C@@H](OC(=O)c2c(-c4c(Cl)cccc4Cl)noc2C2CC2)C3)c(Cl)c1 [Compound I-52, (1R,3R,5S)-8-[2-chloro-4-(methanesulfonylcarbamoyl)phenyl]-8-azabicyclo[3.2.1]octan-3-yl 5-cyclopropyl-3-(2,6-dichlorophenyl)-1,2-oxazole-4-carboxylate] |  |  |  | 109 | 15.8 | 110 |  |  |  |
| O=C(O)c1cc(F)cc(S(=O)(=O)N2[C@@H]3CC[C@H]2C[C@@H](OC(=O)c2c(-c4c(Cl)cccc4Cl)noc2C2CC2)C3)c1 [Compound I-56, 3-{[(1R,3R,5S)-3-[5-cyclopropyl-3-(2,6-dichlorophenyl)-1,2-oxazole-4-carbonyloxy]-8-azabicyclo[3.2.1]octan-8-yl]sulfonyl}-5-fluorobenzoic Acid] |  |  |  | 78 | 631 | 56 |  |  |  |
| O=C(O)c1ccc(N2[C@@H]3CC[C@H]2C[C@@H](OC(=O)c2c(-c4c(Cl)cccc4Cl)noc2C2CC2)C3)c(C(F)(F)F)c1 [Compound I-38, 4-[(1R,3R,5S)-3-[5-cyclopropyl-3-(2,6-dichlorophenyl)-1,2-oxazole-4-carbonyloxy]-8-azabicyclo[3.2.1]octan-8-yl]-3-(trifluoromethyl)benzoic acid] |  |  | 6.6 | 112 | 79.4 | 80 |  |  |  |
| CCCS(=O)(=O)NC(=O)c1cc(F)c2nc(N3[C@@H]4CC[C@H]3C[C@@H](OC(=O)c3c(-c5c(Cl)cccc5Cl)noc3C3(F)CC3)C4)sc2c1 [Compound I-62, (1R,3R,5S)-8-{4-fluoro-6-[(propane-1-sulfonyl)carbamoyl]-1,3-benzothiazol-2-yl}-8-azabicyclo[3.2.1]octan-3-yl 3-(2,6-dichlorophenyl)-5-(1-fluorocyclopropyl)-1,2-oxazole-4-carboxylate] |  |  | 7.4 | 107 | 20 | 145 |  |  |  |

From patent publication US11091482B2, “Isoxazolyl-carbonyloxy azabicyclo[3.2.1]octanyl compounds as FXR activators” (ARDELYX, INC., priority 2016, dated 2021)
